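All cell lines were grown in 96-well plates and treated with compound for 48 hours. TGI is the concentration that stops growth completely.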 Where only a bound is given, the exact number is not on record here.

Test systems include IGROV1 ovarian; DU-145 prostate; MCF7 breast; OVCAR-5 ovarian; 786-0 renal; OVCAR-4 ovarian; SW-620 colon; UO-31 renal; HCC-2998 colon; SK-MEL-2 melanoma; SNB-75 CNS; SF-539 CNS; CCRF-CEM leukemia.
Experiment in all cases: NCI tumour cell line growth inhibition, 48 h

With `CCCCN1CCC(O)(c2cc(C(=O)O)[nH]c2-c2cc(C)no2)C1=O` (stereo not drawn), the TGI in the assay with IGROV1 ovarian, in the assay on DU-145 prostate, in the assay with MCF7 breast, in the assay with OVCAR-5 ovarian, in the assay on 786-0 renal and in the assay with OVCAR-4 ovarian was more than 100 µM each time. Also, the TGI in the assay on SW-620 colon, in the assay on UO-31 renal, with HCC-2998 colon, with SK-MEL-2 melanoma and with SNB-75 CNS was more than 100 µM throughout.

With `S=C(S)N1CCN(c2ccccc2)CC1`, the TGI in the assay with IGROV1 ovarian, in the assay on DU-145 prostate, in the assay with MCF7 breast, in the assay with OVCAR-5 ovarian, with 786-0 renal and in the assay with SW-620 colon was more than 100 µM throughout. Moreover, the TGI in the assay on SF-539 CNS, in the assay with HCC-2998 colon, in the assay on SK-MEL-2 melanoma and in the assay with SNB-75 CNS was more than 100 µM each time.

Consider `CCOC(OCC)[C@H](N)[C@@H](O)[C@@H](O)[C@H]1COC(C)(C)O1`, for which the TGI in the assay with CCRF-CEM leukemia, in the assay with IGROV1 ovarian, in the assay with DU-145 prostate, in the assay with MCF7 breast, in the assay on OVCAR-5 ovarian and in the assay with 786-0 renal was more than 100 µM in each case. The TGI with OVCAR-4 ovarian, with SW-620 colon, in the assay with UO-31 renal, with SK-MEL-2 melanoma and in the assay with SNB-75 CNS was more than 100 µM throughout.

On to `NC(Cc1ccc(O)cn1)C(=O)O` (stereo not drawn), for which the TGI in the assay with IGROV1 ovarian, with DU-145 prostate, in the assay on MCF7 breast, in the assay on OVCAR-5 ovarian, with 786-0 renal and in the assay with OVCAR-4 ovarian was more than 100 µM each time. Besides, the TGI with SW-620 colon, with SF-539 CNS, with UO-31 renal, with HCC-2998 colon and in the assay on SNB-75 CNS was more than 100 µM each time.

On to `CS(=O)(=O)CCC(N)P(=O)(O)O` (stereo not drawn), for which the TGI in the assay with CCRF-CEM leukemia, with IGROV1 ovarian, in the assay with DU-145 prostate, in the assay with MCF7 breast, in the assay with OVCAR-5 ovarian and with 786-0 renal was more than 100 µM in each case. Further, the TGI in the assay with OVCAR-4 ovarian, in the assay on SW-620 colon, in the assay with UO-31 renal, with SK-MEL-2 melanoma and in the assay on SNB-75 CNS was more than 100 µM throughout.

As to `CC(=O)OCCCCn1cnc2c(Cl)nc(Nc3ccccc3)nc21`, the TGI with CCRF-CEM leukemia, in the assay with IGROV1 ovarian, in the assay on DU-145 prostate, in the assay on MCF7 breast, with OVCAR-5 ovarian and with 786-0 renal was more than 100 µM in each case. Moreover, the TGI in the assay with OVCAR-4 ovarian, in the assay with SW-620 colon, with SF-539 CNS, in the assay on UO-31 renal and in the assay with HCC-2998 colon was more than 100 µM in each case.

Take `C(/C=C/Nc1ccc(-c2ccccc2)cc1)=Nc1ccc(-c2ccccc2)cc1`: the TGI with CCRF-CEM leukemia, in the assay with IGROV1 ovarian, in the assay on DU-145 prostate, in the assay on MCF7 breast, in the assay with OVCAR-5 ovarian and with 786-0 renal was more than 100 µM throughout. Further, the TGI with OVCAR-4 ovarian, in the assay with SW-620 colon, with SF-539 CNS, with UO-31 renal, in the assay on SK-MEL-2 melanoma and with SNB-75 CNS was more than 100 µM each time.

On to `CCOC(=O)/C=C(/C(=O)OCC)n1ccc(=O)n(CC(=O)OCC)c1=O`, for which the TGI in the assay with IGROV1 ovarian was found to be 3.33 µM; in the assay on DU-145 prostate it was 17.1 µM; in the assay on MCF7 breast, 1.84 µM; in the assay on OVCAR-5 ovarian, 3.19 µM; in the assay on 786-0 renal, 1.67 µM; with SW-620 colon it was 0.707 µM. Besides, the TGI with SF-539 CNS amounted to 7.88 µM; with UO-31 renal it was 3.03 µM; with HCC-2998 colon it was 5.04 µM; in the assay with SK-MEL-2 melanoma, 12.1 µM; in the assay on SNB-75 CNS, 7.92 µM.

As to `COc1ccc(S(=O)(=O)Nc2ccc(-c3csc(N4C(=O)/C(=C/c5cccs5)N=C4c4ccccc4)n3)cc2)cc1Cl`, the TGI with IGROV1 ovarian, in the assay on DU-145 prostate, in the assay on MCF7 breast, in the assay with OVCAR-5 ovarian, in the assay on 786-0 renal and in the assay with OVCAR-4 ovarian was more than 100 µM throughout. For the same compound, the TGI with SW-620 colon is more than 100 µM; in the assay with SF-539 CNS it was more than 100 µM; in the assay on UO-31 renal it was 86.3 µM; with HCC-2998 colon, more than 100 µM; in the assay with SK-MEL-2 melanoma, more than 100 µM; in the assay with SNB-75 CNS, more than 100 µM.

As to `COc1ccc(/C=C2/SC(c3c(O)ccc4ccccc34)N(NC(=O)CCCCCCCCC(=O)NN3C(=O)/C(=C\c4ccc(OC)c(OC)c4)SC3c3c(O)ccc4ccccc34)C2=O)cc1OC` (stereo not drawn), the TGI was 10.7 µM in the assay with IGROV1 ovarian; more than 100 µM in the assay on DU-145 prostate; more than 100 µM with MCF7 breast; more than 100 µM in the assay with OVCAR-5 ovarian; more than 20.5 µM in the assay on 786-0 renal; more than 100 µM with OVCAR-4 ovarian. Moreover, the TGI is more than 100 µM in the assay with SW-620 colon; 46 µM with SF-539 CNS; more than 100 µM in the assay with HCC-2998 colon; more than 41.6 µM in the assay on SK-MEL-2 melanoma; more than 100 µM with SNB-75 CNS.

Consider `C/C(=N\Nc1nc2ccccc2o1)c1cc2ccccc2cn1`, for which the TGI is more than 38.5 µM in the assay on CCRF-CEM leukemia; 39.7 µM in the assay on DU-145 prostate; more than 33.7 µM in the assay with MCF7 breast; 16.4 µM in the assay on OVCAR-5 ovarian; 6.61 µM with 786-0 renal; 8.25 µM in the assay with OVCAR-4 ovarian. Besides, the TGI is more than 100 µM in the assay with SW-620 colon, 0.271 µM in the assay on UO-31 renal, 12.2 µM with SK-MEL-2 melanoma and 3.7 µM with SNB-75 CNS.

In the case of `CCOC1=NC(C(F)(F)F)(C(F)(F)F)N=C(N2CCCCC2)O1`, the TGI in the assay with CCRF-CEM leukemia, with IGROV1 ovarian, in the assay on DU-145 prostate, in the assay on MCF7 breast, with OVCAR-5 ovarian and in the assay on 786-0 renal was more than 100 µM each time. Moreover, the TGI in the assay on OVCAR-4 ovarian, in the assay with SW-620 colon, in the assay on SF-539 CNS, in the assay on UO-31 renal, in the assay with SK-MEL-2 melanoma and with SNB-75 CNS was more than 100 µM in each case.
